This is an account of results in US5696151A, “Compounds useful for the inhibition of the replication of HIV-1 and HIV-1 mutants” (priority 1995, dated 1997).

Values after ≈ are worked out from the molar mass of the structure shown.

What all share (format): cell-based
One data set relates to HIV-1(IIIB). Kind of data set: Inhibition of HIV-1 induced syncytium formation in CEM cells, wild type. The settings on record: Human immunodeficiency virus 1, IIIB, CCRF-CEM, 96 h, Table 2B, WT = HIV-1(IIIB), day 4, averages of 2 to 3 independent experiments, read-out: Antiviral Activity of Comparative Compounds EC50, WT. An outline of the steps: (§1)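 CEM cells (≈300,000/ml) infected with about 100 CCID50 of HIV-1(IIIB) or RT mutant strains, then added to 5-fold serial dilutions of test compounds. Inhibition of virus-induced syncytium formation scored microscopically on day 4 post infection.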

The subject of another data set is HIV-1/100-Ile. Kind of data set: Inhibition of HIV-1 induced syncytium formation in CEM cells, RT mutant 100-Ile. The settings on record: Human immunodeficiency virus 1, CCRF-CEM, 96 h, Table 2B, day 4, averages of 2 to 3 independent experiments, read-out: Antiviral Activity of Comparative Compounds EC50, 100-Ile. An outline of the steps:
as §1

A further data set has as its system HIV-1/103-Asn. The experiment in a line: Inhibition of HIV-1 induced syncytium formation in CEM cells, RT mutant 103-Asn. To be noted: Human immunodeficiency virus 1, CCRF-CEM, 96 h, Table 2B, day 4, averages of 2 to 3 independent experiments, read-out: Antiviral Activity of Comparative Compounds EC50, 103-Asn. An excerpt: (§2) CEM cells were obtained from the American Tissue Cell Culture Collection (Rockville, Md.). HIV-1(IIIB) was originally obtained from the culture supernatant of persistently HIV-1-infected H9 cells and was provided by R. C. Gallo and M. Popovic (National Cancer Institute, National Institutes of Health, Bethesda, Md.). […] 67: 5353-5359 (1993); HIV-1/Lys-138 ("Lys-138") was selected for resistance against TSAO-m^3T as described in Balzarini et al, Virology 192: 246-253 (1993) and Balzarini et al, Proc. Nat. Acad. Sci. USA 90: 6952-6956 (1993); HIV-1/181-Cys ("181-Cys") was selected for resistance against pyridinone L-697,661 as described in Balzarini et al, Virology 192: 246-253 (1993); and HIV-1/188-His ("188-His") was selected for resistance against HEPT as described in Balzarini et al, Mol. Pharmocol. 44: 694-701 (1993). 188-His was then further converted to HIV-1/188-Leu "188-Leu") upon further passage in cell culture in the absence of the HEPT.
(§3) CEM cells were suspended at ≈300,000 cells per ml of culture medium and infected with approximately 100 CCID50 (CCID50 being the 50% cell culture infective dose) of HIV-1(IIIB) or one of the HIV-1 RT mutant strains described above. Then 100 μl of the infected cell suspensions was added to 200 μl microtiter plate wells containing 100 μl of appropriate serial (5-fold) dilutions of the test compounds. The inhibitory effect of the test compounds on HIV-1 induced syncytium formation in CEM cells was examined microscopically on day 4 post infection.

For another data set, the system named is HIV-1/106-Ala. The experiment in a line: Inhibition of HIV-1 induced syncytium formation in CEM cells, RT mutant 106-Ala. To be noted: Human immunodeficiency virus 1, CCRF-CEM, 96 h, Table 2B, day 4, averages of 2 to 3 independent experiments, read-out: Antiviral Activity of Comparative Compounds EC50, 106-Ala. An outline of the steps:
as §1

The test system of a further data set is HIV-1/Lys-138. The experiment in a line: Inhibition of HIV-1 induced syncytium formation in CEM cells, RT mutant 138-Lys. The settings on record: Human immunodeficiency virus 1, CCRF-CEM, 96 h, Table 2B, day 4, averages of 2 to 3 independent experiments, read-out: Antiviral Activity of Comparative Compounds EC50, 138-Lys. Put shortly: as §1
A further data set concerns HIV-1/181-Cys. The experiment in a line: Inhibition of HIV-1 induced syncytium formation in CEM cells, RT mutant 181-Cys. The settings on record: Human immunodeficiency virus 1, CCRF-CEM, 96 h, Table 2B, day 4, averages of 2 to 3 independent experiments, read-out: Antiviral Activity of Comparative Compounds EC50, 181-Cys. An outline of the steps: as §1
Another data set relates to HIV-1/188-Leu. The experiment in a line: Inhibition of HIV-1 induced syncytium formation in CEM cells, RT mutant 188-Leu. The settings on record: Human immunodeficiency virus 1, CCRF-CEM, 96 h, Table 2B, day 4, averages of 2 to 3 independent experiments, read-out: Antiviral Activity of Comparative Compounds EC50, 188-Leu.
Source text: as §2, §3

The nature of a further data set: in vitro. The settings on record: human, cem cells, CC50 (50% cytostatic concentration), Table 2B; CEM cell proliferation; averages of 2 to 3 independent experiments. Put shortly: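 In CEM cells, the cytostatic value is the compound concentration giving 50% inhibition of cell proliferation. Parallel work used HIV-1(IIIB) and culture-selected resistant strains Lys-138, 181-Cys, 188-His and 188-Leu.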

The EC50 is the midpoint of the concentration-response curve. As a reminder, the CC50 is the concentration at which the toxic effect on the cells reaches its halfway point. The low end stands for greater toxicity to the cells, the high end for lower toxicity to the cells. For the compound `Cc1sccc1C(=S)Nc1ccc(Cl)c(OCC(=O)OC(C)(C)C)c1` [Compound 14], the EC50 with HIV-1(IIIB) came out at 0.067 µg/mL (≈ 0.168 µM); in the data set with HIV-1/100-Ile it was 0.16 µg/mL (≈ 0.402 µM); in the data set on HIV-1/103-Asn, 0.12 µg/mL (≈ 0.302 µM); with HIV-1/106-Ala it was 0.1 µg/mL (≈ 0.251 µM); in the data set with HIV-1/Lys-138, 0.24 µg/mL (≈ 0.603 µM); with HIV-1/181-Cys it was 0.087 µg/mL (≈ 0.219 µM). For the same compound, the EC50 with HIV-1/188-Leu was greater than 2 µg/mL. Besides, it took 2.1 µg/mL (≈ 5.28 µM) to reach half-maximal cytotoxicity in “in vitro” (CC50).

As to `Cc1c(C(=O)Nc2ccc(Cl)c(C=NOC(C)(C)C)c2)ccn1C` [Compound 38], the EC50 is 0.08 µg/mL (≈ 0.23 µM) in the data set on HIV-1(IIIB); no less than 2 µg/mL in the data set with HIV-1/100-Ile; no less than 2 µg/mL in the data set on HIV-1/103-Asn; 0.7 µg/mL (≈ 2.01 µM) in the data set with HIV-1/106-Ala; no less than 2 µg/mL in the data set with HIV-1/Lys-138; greater than 2 µg/mL in the data set with HIV-1/181-Cys. In the data set with HIV-1/188-Leu, the EC50 is greater than 2 µg/mL. Moreover, in the data set “in vitro”, the midpoint of cytotoxicity, the CC50, lay at 5.5 µg/mL (≈ 15.8 µM).

As to `CC(C)=CCOc1cc(NC(=O)c2ccsc2C)ccc1Cl` [Compound 27], the EC50 was determined as 0.01 µg/mL (≈ 0.0298 µM) with HIV-1(IIIB); 0.36 µg/mL (≈ 1.07 µM) in the data set on HIV-1/100-Ile; 0.5 µg/mL (≈ 1.49 µM) in the data set with HIV-1/103-Asn; 0.11 µg/mL (≈ 0.328 µM) with HIV-1/106-Ala; 0.15 µg/mL (≈ 0.447 µM) in the data set with HIV-1/Lys-138; 0.46 µg/mL (≈ 1.37 µM) in the data set on HIV-1/181-Cys. The EC50 in the data set with HIV-1/188-Leu is greater than 2 µg/mL. The compound further came in with a CC50 in the data set “in vitro” of 6 µg/mL (≈ 17.9 µM).

Turning to `Cc1c(C(=S)Nc2ccc(Cl)c(C=NOC(C)(C)C)c2)ccn1C` [Compound 10], the EC50 in the data set with HIV-1(IIIB) is 0.02 µg/mL (≈ 0.055 µM); with HIV-1/100-Ile, 0.65 µg/mL (≈ 1.79 µM); in the data set on HIV-1/103-Asn it was 1.27 µg/mL (≈ 3.49 µM); with HIV-1/106-Ala it was 0.23 µg/mL (≈ 0.632 µM); in the data set on HIV-1/Lys-138 it was 0.09 µg/mL (≈ 0.247 µM); in the data set on HIV-1/181-Cys, 0.033 µg/mL (≈ 0.0907 µM). In the data set with HIV-1/188-Leu, the EC50 was greater than 2 µg/mL. The CC50 in the data set “in vitro” came to 6.5 µg/mL (≈ 17.9 µM).

On to `CC1=C(C(=O)Nc2ccc(Cl)c(C=NOC(C)(C)C)c2)CCCO1` [Compound 24], for which the EC50 with HIV-1(IIIB) worked out at 0.13 µg/mL (≈ 0.371 µM); in the data set on HIV-1/100-Ile, 0.48 µg/mL (≈ 1.37 µM); in the data set on HIV-1/103-Asn, 0.6 µg/mL (≈ 1.71 µM); in the data set on HIV-1/106-Ala it was 0.5 µg/mL (≈ 1.43 µM); with HIV-1/Lys-138 it was 0.5 µg/mL (≈ 1.43 µM); in the data set on HIV-1/181-Cys, 0.33 µg/mL (≈ 0.941 µM). The EC50 with HIV-1/188-Leu is greater than 2 µg/mL. In “in vitro”, this compound gave a CC50 of 9.7 µg/mL (≈ 27.6 µM).

Regarding `C=C(Cl)COc1cc(NC(=S)c2ccsc2C)ccc1C#N` [Compound 25], the EC50 is 0.03 µg/mL (≈ 0.086 µM) with HIV-1(IIIB); 0.2 µg/mL (≈ 0.573 µM) in the data set with HIV-1/100-Ile; 0.4 µg/mL (≈ 1.15 µM) in the data set with HIV-1/103-Asn; 0.2 µg/mL (≈ 0.573 µM) with HIV-1/106-Ala; 0.13 µg/mL (≈ 0.373 µM) in the data set with HIV-1/Lys-138; 0.44 µg/mL (≈ 1.26 µM) with HIV-1/181-Cys. For the same compound, in the data set with HIV-1/188-Leu, the EC50 was greater than 2 µg/mL. Also, in “in vitro”, it took 3.3 µg/mL (≈ 9.46 µM) to reach half-maximal cytotoxicity (CC50).

Consider `CON=Cc1cc(NC(=S)c2ccoc2C)ccc1Cl` [Compound 72], for which the EC50 in the data set on HIV-1(IIIB) is 0.03 µg/mL (≈ 0.0972 µM); in the data set on HIV-1/100-Ile, 2.3 µg/mL (≈ 7.45 µM); with HIV-1/106-Ala, 0.5 µg/mL (≈ 1.62 µM); in the data set with HIV-1/Lys-138, 0.085 µg/mL (≈ 0.275 µM); in the data set with HIV-1/181-Cys, 1.6 µg/mL (≈ 5.18 µM). This compound came in with a CC50 in “in vitro” of 24 µg/mL (≈ 77.7 µM).

In the case of `Cc1sccc1C(=O)Nc1ccc(Cl)c(C=NOC(C)(C)C)c1` [Compound 60], the EC50 was 0.23 µg/mL (≈ 0.656 µM) in the data set with HIV-1(IIIB); 4.5 µg/mL (≈ 12.8 µM) in the data set on HIV-1/100-Ile; 1.6 µg/mL (≈ 4.56 µM) in the data set with HIV-1/106-Ala; 1.57 µg/mL (≈ 4.47 µM) with HIV-1/Lys-138; 3 µg/mL (≈ 8.55 µM) in the data set with HIV-1/181-Cys. In addition, the CC50 in the data set “in vitro” turned out to be 14 µg/mL (≈ 39.9 µM).

Regarding `COc1ccccc1C(=S)Nc1ccc(Cl)c(C(=O)OC2CCCCC2)c1` [Compound 81], the EC50 was found to be 0.04 µg/mL (≈ 0.099 µM) with HIV-1(IIIB); 0.7 µg/mL (≈ 1.73 µM) in the data set with HIV-1/100-Ile; 0.65 µg/mL (≈ 1.61 µM) with HIV-1/106-Ala; 0.6 µg/mL (≈ 1.49 µM) with HIV-1/Lys-138; 4.5 µg/mL (≈ 11.1 µM) with HIV-1/181-Cys. For the same compound, in the data set “in vitro”, the CC50 worked out at 12 µg/mL (≈ 29.7 µM).

`COc1ccccc1C(=O)Nc1ccc(Cl)c(C(=O)OC2CCCC2)c1` [Compound 68]: the EC50 in the data set with HIV-1(IIIB) came to 0.45 µg/mL (≈ 1.2 µM); with HIV-1/100-Ile, 5 µg/mL (≈ 13.4 µM); with HIV-1/106-Ala, 8.5 µg/mL (≈ 22.7 µM); in the data set with HIV-1/Lys-138, 5.5 µg/mL (≈ 14.7 µM); in the data set on HIV-1/181-Cys, 8.5 µg/mL (≈ 22.7 µM). Besides, the CC50 in the data set “in vitro” was greater than 100 µg/mL.
